{"source": "patent US6395740B1", "about": "“Calcitonin mimetics” (ZymoGenetics, Inc., priority 1997, dated 2002)", "key": {"[1]": {"tested_on": "osteoclasts in PTH-treated mouse calvariae", "test": "Calvaria histology: osteoclast number and size", "assay_type": "cell-based", "conditions": "PTH 1-34 treated mouse calvariae", "source_text": "To confirm the findings in the calvarial bone resorption assay employing calcium release from culture mouse calvariae, selected bones were fixed in 10% neutral buffered formalin and demineralized in 5% formic acid with 5% formalin. The bones were dehydrated through an ascending series of ethanol concentrations, infiltrated in glycol methacrylate, and embedded using a JB-4 embedding kit (PolySciences, warrington, Pa.) (Liu et al., J. Bone Mineral Res. 5:973-82 (1990)). Cross sections of calvariae cut at 5 μm were obtained and stained for tartrate-resistant acid phosphatase (TRAP) activity and counterstained with merhyl green and thionin for cell morphology (Laiu et al., supra). Osteociasts were identified by TRAP stain, multinucleation, large cell size, and irregular cell shape. The number of osteoclasts were counted from endocranial and ectocranial bone surfaces and expressed as number/mm perimeter. The size of all the osteoclasts counted was also measured using a Bone Morphometry program (Liu et al., supra; Bain, et al., J. Bone Miner. Res. 8:435-42 (1993)). […]\nCalcitonin mimetic compounds were evaluated in a similar fashion for their ability to suppress PTH-induced increases in osteoclast number and size. Cell toxicity (or death) was also evaluated by the appearance of pyknotic nuclei in a small number of bone cells. […]"}, "[2]": {"tested_on": "PTH-induced bone resorption in mouse calvaria", "test": "Calvarial assay to determine calcitonin escape", "assay_type": "cell-based", "conditions": "for visual observation of the calvaria (resorption): final time point (98 hours)", "description": "Calvaria from 4-day old neonatal CD-1 mice (pregnant mice received from Charles River Laboratories) were trimmed with fine-tipped scissors to leave the parietal regions, including the sagittal suture. These trimmed bones were placed singly per well into 6-well culture cluster plates (Costar) with 1 mL/well of growth medium, Basel Medium (Eagle's with Earle's salts (GIBCO BRL, Gaithersburg, Md.)) containing 4.5 g/L glucose, 0.29 mg/mL L-glutamine, 1 mM sodium pyruvate, 15% heat-inactivated horse serum, antibiotics (penicillin-G 50 μg/mL, streptomycin 50 μg/mL, and neomycin 100 μg/mL) and containing 5 nM parathyroid hormone (PTH) 1-34 (Sigma), and rocked gently (RedRocker™) at 37° C. in a 5% CO2 humidified incubator for 17.5 hours preincubation. The concentration of PTH was chosen to insure maximum resorption. Calvaria designated as controls were pre-incubated in media without PTH.\nFollowing preincubation, medium was removed and replaced with 1 mL/well of growth medium, as above, containing 20 or 30 μg/mL of the calcitonin mimetic 850-0231 in DMSO (final assay concentration of DMSO less than or equal to 1%), and compared with human calcitonin (hCT) tested at 0.5, 1.0, 5.0, […] All control wells contained a final assay concentration of DMSO equal to that present in the calcitonin mimetic treated wells.\nFive bones were included in each sample group. Bones were incubated for a total of 98 hours. Time points were taken at 4, 8, 11, 24, 50.5, 72.5 and 98 hours. At each time point the media containing PTH was removed and fresh dilutions of compound in media were added to the calvaria. After the media was removed, total calcium measurements were made using a Nova 7/7+7 Electrolyte Analyzed (Nova Biomedical) according to the manufacturer's specifications. Induction of bone resorption by PTH is seen as an increase in the concentration of calcium in the growth medium due to degradation of the bone matrix.\nA second calvaria bone resorption/escape assay was performed as described above with time points at 4, 8, 12, 16, 24, 49 and 73 hours. […] Histology was done on the PTH-treated and the 30 μg/mL calcitonin mimetic-treated calvaria.\nA third calvaria bone resorption/escape assay was performed as described above with the following modifications. The calcitonin mimetic was tested at 5, 10 and 20 μg/mL. PTH was used at 10 nM to insure maximal resorption, hCT was tested at 2 nM and 8 nM and sCT was not included. Calvaria were pretreated with PTH for 19.75 hours. BrdU (bromodeoxyuridine, final concentration 10 μM) was added to the growth media for the final 17.5 hours, to identify proliferating cells. The lack of toxicity of 850-0231 will be verified by quartitating the number of proliferating BudU cells in histological sections of the calvaria. Time points were taken at 4, 8, 11, 24.5, 48 and 77 hours. A Novo CRT 10+ electrolyte analyzer (Nova Biomedical) was used to analyze the time point samples.\nAt the final time point, visual observations were made and photos taken to note the extent of resorption, and migration from the calvarial cells as a measure of toxicity. Again, human calcitonin lost its inhibitory effect between hours 11 and 24 (Table 5). The calvaria treated with the mimetic at 5 and 10 μg/mL also lost inhibitory effect between 11 and 24 hours."}, "[3]": {"conditions": "TPTX rats, co-administration with PTH, two days; cited from earlier work"}, "[4]": {"test": "Induction of hypocalcemia in rats", "assay_type": "in vivo", "conditions": "weanling male rats, tail vein, 0.5, 2.5, 5, 50 and 100 ng/rat, one hour", "description": "This assay is based on the in vivo acute effect of calcitonin on osteoclasts, which causes rapid retraction of osteoclass from bone surface (typically within 30 minutes) and which results in decreased bone resorption. See Mills, et al., in Endocrinology 1971—Proceedings of the Third International Symposium, Taylor (ed), Heinemann Medical, London, pp. 79-88 (1972) and Singer, et al., Clin. Endocrinol. 5(Supp):333s-340s (1976); the disclosures of which are incorporated herein by reference. The assay method was modified from the method described by Sturtridge and Kumar, Lancet 545:725-6, 1968, the disclosure of which is incorporated herein by reference.\nFor the assay of hypocalcemic activity, weanling male Holtzman Sprague-Dawley rats (22 days old) are infused with vehicle (PBS with 1 mM HCl and 0.1% BSA), calcitonin or calcitonin mimetics through the tail vein. One hour later, blood samples are collected by orbital sinus puncture to determine serum levels of calcium. A decrease in serum calcium indicates a hypocalcemic response. The hypocalcemic response is dose-dependent as determined using salmon calcitonin (0.5, 2.5, 5, 50 and 100 ng/rat) in this model."}}, "data": [{"substance": "human calcitonin", "values": [{"measurement": "PTH-induced increase in number and size of osteoclasts", "setting": "[1]", "result": "suppressed"}, {"measurement": "time after which inhibitory effect on resorption was lost (escape)", "setting": "[2]; first assay, PTH 5 nM", "result": "approximately 24 hours"}, {"measurement": "Cumulative Total Calcium", "setting": "[2]; first assay, PTH 5 nM, hCT 10 nM, 4 hours", "result": 0.02, "unit": "mg %"}, {"measurement": "Cumulative Total Calcium", "setting": "[2]; first assay, PTH 5 nM, hCT 10 nM, 8 hours", "result": 0.02, "unit": "mg %"}, {"measurement": "Cumulative Total Calcium", "setting": "[2]; first assay, PTH 5 nM, hCT 10 nM, 11 hours", "result": "−0.02", "unit": "mg %"}, {"measurement": "Cumulative Total Calcium", "setting": "[2]; first assay, PTH 5 nM, hCT 10 nM, 24 hours", "result": 0.98, "unit": "mg %"}, {"measurement": "Cumulative Total Calcium", "setting": "[2]; first assay, PTH 5 nM, hCT 10 nM, 50.5 hours", "result": 4.96, "unit": "mg %"}, {"measurement": "Cumulative Total Calcium", "setting": "[2]; first assay, PTH 5 nM, hCT 10 nM, 72.5 hours", "result": 8.24, "unit": "mg %"}, {"measurement": "Cumulative Total Calcium", "setting": "[2]; first assay, PTH 5 nM, hCT 10 nM, 98 hours", "result": 12.26, "unit": "mg %"}, {"measurement": "visual observation of the calvaria (resorption)", "setting": "[2]; first assay", "result": "less resorption"}, {"measurement": "Cumulative Total Calcium", "setting": "[2]; second assay, PTH 5 nM, hCT 10 nM, 4 hours", "result": 0.10, "unit": "mg %"}, {"measurement": "Cumulative Total Calcium", "setting": "[2]; second assay, PTH 5 nM, hCT 10 nM, 8 hours", "result": "−0.04", "unit": "mg %"}, {"measurement": "Cumulative Total Calcium", "setting": "[2]; second assay, PTH 5 nM, hCT 10 nM, 12 hours", "result": "−0.06", "unit": "mg %"}, {"measurement": "Cumulative Total Calcium", "setting": "[2]; second assay, PTH 5 nM, hCT 10 nM, 16 hours", "result": 0.12, "unit": "mg %"}, {"measurement": "Cumulative Total Calcium", "setting": "[2]; second assay, PTH 5 nM, hCT 10 nM, 24 hours", "result": 0.92, "unit": "mg %"}, {"measurement": "Cumulative Total Calcium", "setting": "[2]; second assay, PTH 5 nM, hCT 10 nM, 49 hours", "result": 5.70, "unit": "mg %"}, {"measurement": "Cumulative Total Calcium", "setting": "[2]; second assay, PTH 5 nM, hCT 10 nM, 73 hours", "result": 10.60, "unit": "mg %"}, {"measurement": "Cumulative Total Calcium", "setting": "[2]; third assay, PTH 10 nM, hCT 2 nM, 4 hours", "result": 0.01, "unit": "mg %"}, {"measurement": "Cumulative Total Calcium", "setting": "[2]; third assay, PTH 10 nM, hCT 2 nM, 8 hours", "result": 0.10, "unit": "mg %"}, {"measurement": "Cumulative Total Calcium", "setting": "[2]; third assay, PTH 10 nM, hCT 2 nM, 11 hours", "result": 0.10, "unit": "mg %"}, {"measurement": "Cumulative Total Calcium", "setting": "[2]; third assay, PTH 10 nM, hCT 2 nM, 24.5 hours", "result": 1.22, "unit": "mg %"}, {"measurement": "Cumulative Total Calcium", "setting": "[2]; third assay, PTH 10 nM, hCT 2 nM, 48 hours", "result": 4.88, "unit": "mg %"}, {"measurement": "Cumulative Total Calcium", "setting": "[2]; third assay, PTH 10 nM, hCT 2 nM, 77 hours", "result": 9.55, "unit": "mg %"}, {"measurement": "Cumulative Total Calcium", "setting": "[2]; third assay, PTH 10 nM, hCT 8 nM, 4 hours", "result": 0.08, "unit": "mg %"}, {"measurement": "Cumulative Total Calcium", "setting": "[2]; third assay, PTH 10 nM, hCT 8 nM, 8 hours", "result": 0.24, "unit": "mg %"}, {"measurement": "Cumulative Total Calcium", "setting": "[2]; third assay, PTH 10 nM, hCT 8 nM, 11 hours", "result": 0.27, "unit": "mg %"}, {"measurement": "Cumulative Total Calcium", "setting": "[2]; third assay, PTH 10 nM, hCT 8 nM, 24.5 hours", "result": 1.45, "unit": "mg %"}, {"measurement": "Cumulative Total Calcium", "setting": "[2]; third assay, PTH 10 nM, hCT 8 nM, 48 hours", "result": 4.60, "unit": "mg %"}, {"measurement": "Cumulative Total Calcium", "setting": "[2]; third assay, PTH 10 nM, hCT 8 nM, 77 hours", "result": 9.74, "unit": "mg %"}]}, {"substance": "salmon calcitonin", "values": [{"measurement": "PTH-induced serum, bone and kidney changes", "setting": "[3]", "result": "attenuated"}, {"measurement": "hypocalcemic response (decrease in serum calcium)", "setting": "[4]", "result": "dose-dependent"}, {"measurement": "time after which inhibitory effect on resorption was lost (escape)", "setting": "[2]; first assay, PTH 5 nM", "result": "approximately 24 hours"}, {"measurement": "Cumulative Total Calcium", "setting": "[2]; first assay, PTH 5 nM, sCT 0.2 nM, 4 hours", "result": 0.10, "unit": "mg %"}, {"measurement": "Cumulative Total Calcium", "setting": "[2]; first assay, PTH 5 nM, sCT 0.2 nM, 8 hours", "result": 0.18, "unit": "mg %"}, {"measurement": "Cumulative Total Calcium", "setting": "[2]; first assay, PTH 5 nM, sCT 0.2 nM, 11 hours", "result": 0.34, "unit": "mg %"}, {"measurement": "Cumulative Total Calcium", "setting": "[2]; first assay, PTH 5 nM, sCT 0.2 nM, 24 hours", "result": 1.76, "unit": "mg %"}, {"measurement": "Cumulative Total Calcium", "setting": "[2]; first assay, PTH 5 nM, sCT 0.2 nM, 50.5 hours", "result": 6.12, "unit": "mg %"}, {"measurement": "Cumulative Total Calcium", "setting": "[2]; first assay, PTH 5 nM, sCT 0.2 nM, 72.5 hours", "result": 9.88, "unit": "mg %"}, {"measurement": "Cumulative Total Calcium", "setting": "[2]; first assay, PTH 5 nM, sCT 0.2 nM, 98 hours", "result": 13.22, "unit": "mg %"}, {"measurement": "visual observation of the calvaria (resorption)", "setting": "[2]; first assay", "result": "less resorption"}, {"measurement": "Cumulative Total Calcium", "setting": "[2]; second assay, PTH 5 nM, sCT 1 nM, 4 hours", "result": "−0.02", "unit": "mg %"}, {"measurement": "Cumulative Total Calcium", "setting": "[2]; second assay, PTH 5 nM, sCT 1 nM, 8 hours", "result": "−0.16", "unit": "mg %"}, {"measurement": "Cumulative Total Calcium", "setting": "[2]; second assay, PTH 5 nM, sCT 1 nM, 12 hours", "result": "−0.20", "unit": "mg %"}, {"measurement": "Cumulative Total Calcium", "setting": "[2]; second assay, PTH 5 nM, sCT 1 nM, 16 hours", "result": 0.08, "unit": "mg %"}, {"measurement": "Cumulative Total Calcium", "setting": "[2]; second assay, PTH 5 nM, sCT 1 nM, 24 hours", "result": 0.92, "unit": "mg %"}, {"measurement": "Cumulative Total Calcium", "setting": "[2]; second assay, PTH 5 nM, sCT 1 nM, 49 hours", "result": 6.02, "unit": "mg %"}, {"measurement": "Cumulative Total Calcium", "setting": "[2]; second assay, PTH 5 nM, sCT 1 nM, 73 hours", "result": 11.56, "unit": "mg %"}]}]}
